Assay results reported in publication PMC9782626, “Copper(II) Complexes of 5–Fluoro–Salicylaldehyde: Synthesis, Characterization, Antioxidant Properties, Interaction with DNA and Serum Albumins” (Molecules, 2022).

System: EB–DNA conjugate (CT DNA)
Experiment: EB-displacement studies (fluorescence of EB-DNA conjugate)
Type: binding, calf
Conditions: for Stern–Volmer constant Ksv (EB–DNA) / ΔΙ/Ιο, percentage of EB–DNA fluorescence quenching: [EB] = 20 µM, [DNA] = 26 µM; for ΔΙ/Ιο, percentage of EB–DNA fluorescence quenching: 592 nm; for EB–DNA quenching constant kq: from KSV with τo = 23 ns; for EB–DNA relative fluorescence emission intensity I/Io remaining (% of initial): λemission = 592 nm, final value, r up to 0.36
From the text: EB is a well-known indicator of DNA intercalation, since its insertion in-between adjacent DNA base pairs may lead to the development of effective π–π stacking interactions. A solution containing the EB–DNA adduct presents an intense fluorescence emission band at 592 nm when excited at λex = 540 nm. The addition of a compound intercalating to DNA equally or more tightly than EB into this solution may induce changes to the emission band which are monitored, in order to gain insight into its competition with EB for the DNA intercalation site.
The fluorescence emission spectra of pretreated EB–DNA ([EB] = 20 µM, [DNA] = 26 µM) were recorded in the presence of increasing amounts of the complexes (representatively shown for complex 1 in Figure 6A).
The Stern–Volmer (KSV) constants (Table 6) of the complexes were calculated with the Stern–Volmer equation (Equation (S2)) and Stern–Volmer plots. The KSV values are relatively high (of the […] magnitude), indicating a tight binding to CT DNA. […] The EB–DNA quenching constants (kq) of the compounds (Table 6) were calculated with Equation (S3) (considering τo = 23 ns as the EB–DNA fluorescence lifetime); the kq values are higher than 10^10 M^−1 s^−1 [56], proposing the existence of a static quenching mechanism, which may confirm the interaction with the fluorophore and the displacement of EB. […]
S2Binding studies with CT DNA […]
S2.3 EB -displa cement studie s
The competition of the complexes with EB was investigated by fluorescence emission spectroscopy in order to examine whether the compounds can displace EB from its DNA-EB conjugate. The CT DNA-EB complex was formed by pre-treating 20 μM EB and 26 μM CT DNA in buffer (150 mM NaCl and 15 mM trisodium citrate at pH = 7.0).
The possible displacement of EB by the compounds and su bseq uently t he ir intercalating effect was studied by the stepwise addition of a certain amount of the solution of each […]
compound into the solution of the CT DNA-EB adduct. The solut ions were excited at 540 nm and the emission was monitored from 550-700 nm with λmax= 592- 595 nm and the effe ct of the addition of each compound to the CT-DNA EB solution was recorded. The […]
solution or in the presence of CT DNA or EB under the same experimental conditions (λ ex = 540 nm); therefore, the observed quenching of the EB-DNA solution may be attributed to the displacement of EB from its EB -DNA add uct.
The Stern-Volmer constants (KSV, in M -1) were calculated according by the linear Stern-Volmer equation (eq. S2) [S 4] and the respect ive plots Io/I versus [ compound].
Io =1+ k τ [Q] =1+ K [Q] (eq. S2) […]
where Io and I are the emission intensit ies of the EB-DNA solut ion in the absence and the presence of the compounds , respectively, τo= the average lifetime of the emitting system without the quencher and kq = the quenching constant. Taking τo = 23 ns as the fluorescence lifetime of the EB-DNA adduct [S5], the quenching co nstants (k q, in M -1s-1) of the compounds were calculated according to eq. S3 [S 4]:
S3Albumin -binding studies
In order to investigate if the compounds can bind to carrier proteins like serum albumins, we carried out albumin binding study by tryptophan fluorescence quenching experiments using bo vine serum albumin (BSA, 3 μM) in buffer (containing 15 mM trisodium citrate and 150 mM NaCl at pH 7.0). The quenching of the emission intensity of tryptophan residues of BSA at 343 nm was monitored using the co mpounds as que ncher s with increasing concentration [S4]. The fluo rescence emission spectra of the compounds were also recorded with λex = 295 nm. No fluorescence emission band was recorded and thus it was not related to the compounds . The influence of the inner-filter effect [S6] on the measurements wa s evaluated by equation S4.
Where Icorr = corrected intensity, Imeas = the measured intensity, c = the concentration of the quencher, d = the cuvette (1 cm), ε (λexc ) and ε(λe m) = the ε of the quencher at the excitation […]

Row | Structure (SMILES) | Stern–Volmer constant Ksv (EB–DNA) | ΔΙ/Ιο, percentage of EB–DNA fluorescence quenching | EB–DNA quenching constant kq | EB–DNA relative fluorescence emission intensity I/Io remaining (% of initial)
1 | O=Cc1cc(F)ccc1[O-].O=Cc1cc(F)ccc1[O-].[Cu+2] [Complex 1, [Cu(5–F–salo)2]] | 1.56 (±0.02) × 10^5 M^−1 | 44.8% | 6.78 (±0.09) × 10^12 M^−1 s^−1 | 55.2%
2 | O=Cc1cc(F)ccc1[O-].[Cl-].[Cu+2].c1ccc(Nc2ccccn2)nc1 [Complex 2, [Cu(5–F–salo)(bipyam)Cl]] | 6.23 (±0.11) × 10^4 M^−1 | 44.5% | 2.71 (±0.05) × 10^12 M^−1 s^−1 | 55.5%
3 | CO.Cc1ccc2ccc3ccc(C)nc3c2n1.O=Cc1cc(F)ccc1[O-].[Cl-].[Cu+2] [Complex 3, [Cu(5–F–salo)(neoc)Cl].CH3OH] | 3.35 (±0.05) × 10^4 M^−1 | 49.1% | 1.46 (±0.02) × 10^12 M^−1 s^−1 | 50.9%
4 | O=Cc1cc(F)ccc1[O-].O=[N+]([O-])[O-].[Cu+2].c1cnc2c(c1)ccc1cccnc12 [Complex 4, [Cu(5–F–salo)(phen)(NO3)]] | 6.77 (±0.07) × 10^4 M^−1 | 48.4% | 2.94 (±0.03) × 10^12 M^−1 s^−1 | 51.6%
5 | O=Cc1cc(F)ccc1[O-].O=[N+]([O-])[O-].[Cu+2].c1ccc(-c2ccccn2)nc1 [Complex 5, [Cu(5–F–salo)(bipy)(NO3)]] | 3.14 (±0.06) × 10^4 M^−1 |  | 1.36 (±0.03) × 10^12 M^−1 s^−1 | 
